Source: the supplement of paper PMC10307832

What was measured:
Assay in all cases: relative viability (nuclei count vs DMSO), 5 days (fraction); higher = more cells survive
Trametinib + Foretinib = compound: CC(=O)Nc1cccc(-n2c(=O)n(C3CC3)c(=O)c3c(Nc4ccc(I)cc4F)n(C)c(=O)c(C)c32)c1 [Trametinib] + COc1cc2c(Oc3ccc(NC(=O)C4(C(=O)Nc5ccc(F)cc5)CC4)cc3F)ccnc2cc1OCCCN1CCOCC1 [Foretinib] (partner 0.25 µM)
Method in brief: (§1)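 Relative viability is defined as nuclei in treated wells over nuclei in vehicle wells. Duplicate plates were run and medians reported. Lung cancer cell lines in 1536-well plates were dosed by pin tool one day after seeding, with one drug or with a fixed anchor-drug dose plus five library-drug doses (not always all listed) in √10 steps, and nuclei were counted after 5 days.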

Trametinib + Pemetrexed = compound: CC(=O)Nc1cccc(-n2c(=O)n(C3CC3)c(=O)c3c(Nc4ccc(I)cc4F)n(C)c(=O)c(C)c32)c1 [Trametinib] + Nc1nc2[nH]cc(CCc3ccc(C(=O)N[C@@H](CCC(=O)O)C(=O)O)cc3)c2c(=O)[nH]1 [Pemetrexed] (partner 0.2 µM)
Method in brief: as §1

[1] = compound: CN1C=C(C2=CC=CC=C21)/C=C\3/C4=C(C=CC=N4)NC3=O + COc1cccc2cc(-c3nc([C@H]4CC[C@H](C(=O)O)CC4)n4ncnc(N)c34)[nH]c12 [OSI-027] (partner 0.5 µM)
Method in brief: as §1

[2] = compound: CN1C=C(C2=CC=CC=C21)/C=C\3/C4=C(C=CC=N4)NC3=O + N=C(N)NC(=N)NCCc1ccccc1 [Phenformin] (partner 250 µM)
Method in brief: as §1

Cell Line | relative viability (Trametinib + Foretinib; first compound 0.0025 µM) | relative viability (Trametinib + Foretinib; first compound 0.007906 µM) | relative viability (Trametinib + Foretinib; first compound 0.025 µM) | relative viability (Trametinib + Foretinib; first compound 0.07906 µM) | relative viability (Trametinib + Foretinib; first compound 0.25 µM) | relative viability (Trametinib + Pemetrexed; first compound 0.0025 µM) | relative viability (Trametinib + Pemetrexed; first compound 0.007906 µM) | relative viability (Trametinib + Pemetrexed; first compound 0.025 µM) | relative viability (Trametinib + Pemetrexed; first compound 0.07906 µM) | relative viability (Trametinib + Pemetrexed; first compound 0.25 µM) | relative viability ([1]; first compound 0.02 µM) | relative viability ([1]; first compound 0.06325 µM) | relative viability ([1]; first compound 0.2 µM) | relative viability ([1]; first compound 0.6325 µM) | relative viability ([1]; first compound 2 µM) | relative viability ([2]; first compound 0.02 µM) | relative viability ([2]; first compound 0.06325 µM) | relative viability ([2]; first compound 0.2 µM) | relative viability ([2]; first compound 0.6325 µM) | relative viability ([2]; first compound 2 µM)
201T | 1.05 | 1 | 1.02 | 0.815 | 0.715 | 0.394 | 0.362 | 0.338 | 0.341 | 0.371 | 0.773 | 0.366 | 0.626 | 0.835 | 0.422 | 0.434 | 0.451 | 0.429 | 0.394 | 0.422
A549 | 0.817 | 0.594 | 0.534 | 0.178 | 0.0763 |  |  |  |  |  |  |  |  |  |  | 0.16 | 0.101 | 0.181 | 0.114 | 0.183
A-427 | 1 | 0.747 | 0.619 | 0.517 | 0.448 | 1.08 | 1.1 | 0.977 | 0.839 | 0.679 | 0.575 | 0.445 |  | 0.549 | 0.416 | 0.261 | 0.309 |  | 0.275 | 0.348
ABC-1 | 1.04 | 0.834 | 0.715 | 0.891 | 0.685 |  |  |  |  |  | 0.683 | 0.461 | 0.273 | 0.4 | 0.533 | 0.226 | 0.242 | 0.23 | 0.244 | 0.21
BEN | 0.757 | 0.727 | 0.302 | 0.408 | 0.499 | 0.706 | 0.752 | 0.511 | 0.45 | 0.646 | 0.282 | 0.29 |  | 0.403 | 0.276 | 0.264 | 0.29 |  | 0.255 | 0.242
CAL-12T | 0.969 | 0.893 | 0.716 | 0.499 | 0.489 | 1.21 | 1.15 | 0.753 | 0.483 | 0.589 | 0.628 | 0.47 | 0.525 | 0.645 | 0.53 | 0.507 | 0.537 | 0.613 | 0.612 | 0.601
COR-L23 | 1.05 | 1.04 | 0.953 | 0.777 | 0.45 | 0.192 | 0.211 | 0.23 | 0.214 | 0.209 | 0.713 | 0.716 | 0.829 | 0.723 | 0.843 | 0.429 | 0.396 | 0.394 | 0.48 | 0.441
COR-L 105 | 0.815 | 1.19 | 0.489 | 0.552 | 0.374 | 0.984 | 0.825 | 0.69 | 0.488 | 0.42 | 1.01 | 0.897 | 0.591 | 0.746 | 0.724 | 0.518 | 0.444 | 0.496 | 0.489 | 0.486
Calu-6 | 0.835 | 0.503 | 0.418 | 0.12 | 0.131 |  |  |  |  |  |  |  |  |  |  |  |  |  |  | 
ChaGo-K-1 | 0.805 | 0.908 | 0.839 | 0.839 | 0.687 | 0.281 | 0.253 | 0.261 | 0.259 | 0.248 | 0.56 | 0.672 | 0.339 | 0.613 | 0.609 | 0.419 | 0.492 | 0.41 | 0.522 | 0.471
EBC-1 | 0.101 | 0.0972 | 0.0957 | 0.0946 | 0.0905 |  |  |  |  |  |  |  |  |  |  |  |  |  |  | 
EKVX | 0.809 | 0.724 | 0.332 | 0.379 | 0.838 | 0.345 | 0.381 | 0.402 | 0.312 | 0.358 | 0.589 | 0.434 | 0.855 | 0.682 | 0.627 | 0.206 | 0.227 | 0.226 | 0.201 | 0.236
EMC-BAC-2 | 0.917 | 0.885 | 0.782 | 0.907 | 0.68 | 0.547 | 0.489 | 0.572 | 0.544 | 0.56 | 0.388 | 0.384 | 0.391 | 0.405 | 0.362 | 0.538 | 0.525 | 0.522 | 0.475 | 0.533
EPLC-272H | 0.476 | 0.384 | 0.26 | 0.237 | 0.14 | 0.318 | 0.328 | 0.287 | 0.294 | 0.27 | 0.219 | 0.29 | 0.269 |  | 0.309 | 0.287 | 0.244 | 0.242 |  | 0.3
H3255 | 0.794 | 0.857 | 0.501 | 0.728 | 0.509 | 0.538 | 0.506 | 0.514 | 0.473 | 0.463 | 0.676 | 0.627 | 0.532 | 0.621 | 0.53 | 0.384 | 0.36 | 0.341 | 0.327 | 0.366
HARA | 0.834 | 0.555 | 0.58 | 0.515 | 0.232 | 0.224 | 0.226 | 0.254 | 0.212 | 0.219 | 0.539 | 0.449 |  | 0.505 | 0.586 | 0.407 | 0.412 |  | 0.34 | 0.431
HCC-15 | 0.75 | 0.559 | 0.343 | 0.244 | 0.201 | 0.21 | 0.221 | 0.227 | 0.186 | 0.221 | 0.656 | 0.568 | 0.582 | 0.651 | 0.552 | 0.422 | 0.462 | 0.486 | 0.448 | 0.463
HCC-44 |  |  |  |  |  | 0.647 | 0.702 | 0.734 | 0.763 | 0.772 | 0.478 | 0.486 |  | 0.455 | 0.457 | 0.187 | 0.122 | 0.115 | 0.135 | 0.136
HCC-78 | 0.515 | 0.392 | 0.513 | 0.443 | 0.403 | 0.843 | 0.888 | 0.893 | 0.934 | 0.924 | 0.368 | 0.335 |  | 0.392 | 0.35 | 0.545 | 0.709 |  | 0.525 | 0.614
